Data: PubChem BioAssay AID1996
≈ marks a conversion by molar mass, not a printed value.

Details: buffer; pH 7.4; 200.0 µM

Q: For `Cc1ccc(C)c(NC(=O)Cc2nc(CNCC(C)C)cs2)c1`, which solubility kinetic is on record?
A: Its solubility kinetic is 47.1 µg/mL (≈ 142 µM).

Q: With `COc1cscc1C(N)=O` as the molecule, how does the solubility kinetic read?
A: Its solubility kinetic is 19.4 µg/mL (≈ 123 µM).

Q: With `O=C(NC1CCCc2ccccc21)C1CCCC1` (centres undefined) as the molecule, how does the solubility kinetic read?
A: Its solubility kinetic is 27.3 µg/mL (≈ 112 µM).

Q: With `NC(=O)C1CCN(C(=O)CCSCc2ccccc2)CC1` as the molecule, how does the solubility kinetic read?
A: The solubility kinetic was over 46 µg/mL.

Q: For `N#C/C(=C\c1cccnc1)c1nc2ccccc2[nH]1`, which solubility kinetic is on record?
A: The solubility kinetic was 27.4 µg/mL (≈ 111 µM).

Q: With `Nc1cc(N2CCOCC2)c(Cl)cc1[N+](=O)[O-]` as the molecule, how does the solubility kinetic read?
A: The solubility kinetic was 31.4 µg/mL (≈ 122 µM).

Q: Which solubility kinetic does the source give for `Cc1ccc(NC(=O)c2ccc(NC(=O)C3CCCCC3C(=O)O)cc2)cc1` (centres undefined) here?
A: Its solubility kinetic is over 57.1 µg/mL.

Q: Which solubility kinetic does the source give for `CCc1cccc(OCC2Cn3c(nc4c3c(=O)n(C)c(=O)n4C)O2)c1` (centres undefined) here?
A: The solubility kinetic was 28.2 µg/mL (≈ 79.1 µM).

Q: Which solubility kinetic does the source give for `CCOc1ccccc1NC(=O)c1cc(=O)[nH]c2ccc(S(=O)(=O)N3CCOCC3)cc12` here?
A: Its solubility kinetic is 21.4 µg/mL (≈ 46.8 µM).

Q: Which solubility kinetic does the source give for `CSc1ncccc1C(=O)Nc1ccc(C)cn1` here?
A: The solubility kinetic was over 38.9 µg/mL.

Q: With `CC(=O)N1CCN(C(=O)CNC(=O)c2ccc(C)s2)CC1` as the molecule, how does the solubility kinetic read?
A: Its solubility kinetic is over 46.4 µg/mL.

Q: For `CN1C(=O)NC(c2cccc([N+](=O)[O-])c2)C2=C1CCCC2=O` (centres undefined), which solubility kinetic is on record?
A: Its solubility kinetic is over 45.2 µg/mL.

Q: For `Cc1nsc2nc3c(F)c(F)c(F)c(F)c3cc12`, which solubility kinetic is on record?
A: Its solubility kinetic is 4.4 µg/mL (≈ 16.2 µM).

Q: Which solubility kinetic does the source give for `COc1ccc(CC(=O)O/N=C(\N)c2ccccn2)cc1` here?
A: The solubility kinetic was over 42.8 µg/mL.

Q: With `CCCn1c(=O)c(C(=O)NCc2ccco2)c(O)c2ccccc21` as the molecule, how does the solubility kinetic read?
A: The solubility kinetic was under 0.3 µg/mL.

Q: Which solubility kinetic does the source give for `NC(=O)CSc1nnc(Cc2ccc3c(c2)OCO3)o1` here?
A: Its solubility kinetic is over 44 µg/mL.

Q: For `CCC(C)NC(=O)c1ccc2c(Cl)c3c(nc2c1)CCC3` (centres undefined), which solubility kinetic is on record?
A: The solubility kinetic was 9.9 µg/mL (≈ 32.7 µM).

Q: With `COc1ccc(NC(=O)CN2CCc3ccccc3C2)c([N+](=O)[O-])c1` as the molecule, how does the solubility kinetic read?
A: Its solubility kinetic is 1.8 µg/mL (≈ 5.27 µM).

Q: Which solubility kinetic does the source give for `Cc1ccc(C(=O)Nc2ccccc2N2CCCC2)cc1` here?
A: The solubility kinetic was 31.4 µg/mL (≈ 112 µM).

Q: For `Cc1ccc2cc(NC(=O)Cc3ccccc3)ccc2n1`, which solubility kinetic is on record?
A: Its solubility kinetic is 32.6 µg/mL (≈ 118 µM).

Q: With `COc1ccccc1CN1CCCC(CNC(=O)c2cccc3ccccc23)C1` (centres undefined) as the molecule, how does the solubility kinetic read?
A: Its solubility kinetic is 49.5 µg/mL (≈ 127 µM).

Q: With `O=C(CCC(=O)N1CCc2ccccc2C1)NCCc1ccc(Cl)cc1` as the molecule, how does the solubility kinetic read?
A: Its solubility kinetic is over 55.6 µg/mL.

Q: For `CN1c2ccccc2Sc2cc(N)ccc21`, which solubility kinetic is on record?
A: The solubility kinetic was 25.6 µg/mL (≈ 112 µM).

Q: Which solubility kinetic does the source give for `CNC(=S)NC12CC3CC(CC(C3)C1)C2` here?
A: Its solubility kinetic is 3.8 µg/mL (≈ 16.9 µM).

Q: For `CN(C)c1cccc(N(C)C)c1CNC(=O)NC(=O)c1c(F)cccc1F`, which solubility kinetic is on record?
A: Its solubility kinetic is 0.3 µg/mL (≈ 0.797 µM).

Q: For `COc1ccc(NC(=O)COC(=O)CCc2nc3ccccc3c(=O)[nH]2)cc1Cl`, which solubility kinetic is on record?
A: Its solubility kinetic is 59.7 µg/mL (≈ 144 µM).

Q: Which solubility kinetic does the source give for `CN(CC(=O)Nc1cccc(F)c1)CC(=O)Nc1ccccc1-c1ccccc1` here?
A: The solubility kinetic was 17.3 µg/mL (≈ 44.2 µM).

Q: For `CCOC(=O)NC(=O)COC(=O)c1cccc2ccccc12`, which solubility kinetic is on record?
A: Its solubility kinetic is over 45.2 µg/mL.

Q: Which solubility kinetic does the source give for `O=C(Cc1ccccc1)c1c[nH]c(C(=O)NCCCn2ccnc2)c1` here?
A: The solubility kinetic was over 50.5 µg/mL.

Q: With `O=C(/C=C1\SC(=O)NC1=O)Nc1ccc(C(=O)O)cc1` as the molecule, how does the solubility kinetic read?
A: The solubility kinetic was over 43.8 µg/mL.

Q: With `Cc1cc(C)c(C(=O)NCCCN2CCOCC2)c(C)c1` as the molecule, how does the solubility kinetic read?
A: The solubility kinetic was over 43.6 µg/mL.

Q: With `CN(C(=O)COC(=O)CCC(=O)c1ccc(F)cc1)C1CCCCC1` as the molecule, how does the solubility kinetic read?
A: Its solubility kinetic is over 52.4 µg/mL.

Q: For `CCn1c(SCC(=O)NC2CC2)nnc1-c1ccccn1`, which solubility kinetic is on record?
A: The solubility kinetic was over 45.5 µg/mL.

Q: Which solubility kinetic does the source give for `N#CC1=C(N)Oc2cc(N)ccc2C1c1ccc(F)cc1F` (centres undefined) here?
A: The solubility kinetic was over 44.9 µg/mL.

Q: Which solubility kinetic does the source give for `O=C(COC(=O)c1ccc(OC(F)F)cc1)NCc1cccs1` here?
A: The solubility kinetic was 35.5 µg/mL (≈ 104 µM).

Q: Which solubility kinetic does the source give for `O=C(/C=C/c1ccco1)N(Cc1ccc(Cl)cc1)C1CCS(=O)(=O)C1` (centres undefined) here?
A: Its solubility kinetic is 46.2 µg/mL (≈ 122 µM).

Q: Which solubility kinetic does the source give for `O=C(NCc1csc(-c2cccs2)n1)Nc1cccc(Cl)c1` here?
A: The solubility kinetic was 0.3 µg/mL (≈ 0.857 µM).

Q: Which solubility kinetic does the source give for `CC1(NC(=O)Nc2cccc3ccccc23)CCS(=O)(=O)C1` (centres undefined) here?
A: Its solubility kinetic is 43 µg/mL (≈ 135 µM).

Q: Which solubility kinetic does the source give for `O=C(COC(=O)/C=C/c1ccc(F)cc1)NCc1ccco1` here?
A: Its solubility kinetic is 5.1 µg/mL (≈ 16.8 µM).

Q: Which solubility kinetic does the source give for `CC1C(=O)N2CCCc3cc(NC(=O)C(=O)NCc4ccccn4)cc1c32` (centres undefined) here?
A: Its solubility kinetic is over 54.7 µg/mL.

Q: Which solubility kinetic does the source give for `CC(=O)c1sc2nsc(SCCN3CCOCC3)c2c1N` here?
A: The solubility kinetic was over 51.5 µg/mL.

Q: Which solubility kinetic does the source give for `CN1CCCN(C(=O)c2ccc(Cl)s2)CC1` here?
A: The solubility kinetic was over 38.8 µg/mL.

Q: Which solubility kinetic does the source give for `CC(OC(=O)CN1C(=O)c2ccccc2C1=O)C(=O)NC1CCCC1` (centres undefined) here?
A: The solubility kinetic was over 51.7 µg/mL.

Q: With `Cc1cn2c(=O)c(C(=O)N3CCN(c4ccccc4F)CC3)cnc2s1` as the molecule, how does the solubility kinetic read?
A: Its solubility kinetic is over 55.9 µg/mL.

Q: With `O=C(c1ccc([N+](=O)[O-])cc1Cl)N1CCN(c2ccccn2)CC1` as the molecule, how does the solubility kinetic read?
A: The solubility kinetic was over 52 µg/mL.

Q: Which solubility kinetic does the source give for `CCCCN(C(C)=O)C1CC(=O)N(c2ccc(OCCC)cc2)C1=O` (centres undefined) here?
A: The solubility kinetic was over 52 µg/mL.

Q: For `Cc1cc(C(=O)NC(Cc2c[nH]c3ccccc23)C(=O)O)c(C)o1` (centres undefined), which solubility kinetic is on record?
A: The solubility kinetic was 41.6 µg/mL (≈ 127 µM).

Q: Which solubility kinetic does the source give for `O=C([O-])c1ncc(Cl)c(Cl)c1Cl.[NH4+]` here?
A: The solubility kinetic was over 36.5 µg/mL.

Q: With `COc1ccc(/C=C\c2nc(O)c([N+](=O)[O-])c(=O)[nH]2)cc1O` as the molecule, how does the solubility kinetic read?
A: The solubility kinetic was over 45.8 µg/mL.

Q: Which solubility kinetic does the source give for `COc1cccc(C=Nc2ccc3c(c2)CCC3)c1O` here?
A: Its solubility kinetic is 26.8 µg/mL (≈ 100 µM).

Q: With `CN(C(=S)Nc1cccnc1)c1ccc(O)cc1` as the molecule, how does the solubility kinetic read?
A: The solubility kinetic was 29 µg/mL (≈ 112 µM).

Q: Which solubility kinetic does the source give for `OC(CNC1CCCCC1)C(F)(F)F` (centres undefined) here?
A: Its solubility kinetic is over 31.7 µg/mL.

Q: Which solubility kinetic does the source give for `CC1(/[N+]([O-])=C\c2ccccc2F)CCCCC1=O` (centres undefined) here?
A: Its solubility kinetic is over 37.4 µg/mL.

Q: For `COC(=O)CS(=O)(=O)c1cc([N+](=O)[O-])ccc1NC(=O)OC`, which solubility kinetic is on record?
A: Its solubility kinetic is 38.7 µg/mL (≈ 116 µM).

Q: With `CC1=C([N+](=O)[O-])C(c2ccccc2Cl)NC(=O)N1` (centres undefined) as the molecule, how does the solubility kinetic read?
A: Its solubility kinetic is over 40.2 µg/mL.

Q: For `O=C(O)CC(c1cccc(O)c1)N1Cc2ccccc2C1=O` (centres undefined), which solubility kinetic is on record?
A: The solubility kinetic was over 44.6 µg/mL.

Q: Which solubility kinetic does the source give for `CCn1c(CNC(=O)c2cccnc2)cc2ccccc21` here?
A: The solubility kinetic was over 41.9 µg/mL.

Q: Which solubility kinetic does the source give for `O=C(CSc1nc(-c2ccccc2)ns1)N1CCOCC1` here?
A: Its solubility kinetic is 1 µg/mL (≈ 3.11 µM).

Q: For `CC(C)(C)NC(=O)C1CCN(C(=O)c2ccco2)CC1`, which solubility kinetic is on record?
A: Its solubility kinetic is 41.2 µg/mL (≈ 148 µM).
